Assay results as given in paper PMC9320513, “Peptide-Mediated Targeted Delivery of Aloe-Emodin as Anticancer Drug” (Molecules, 2022).
Where a SMILES comes first, the peptide text is derived from it. The star is where a group is joined. X1 = O=C(CCCC(=O)*)OCc1cc(O)c2c(c1)C(=O)c1cccc(O)c1C2=O

Columns and labels:
NK-92 cells [1] = experiment: Proliferation of NK-92 cells, Ki-67 flow cytometry; format: cell-based, Human; conditions: 48 h, all concentrations except 50 μM
Protocol: (§1) Apoptosis was quantified using FITC-conjugated annexin V (AV) according to the manufacturer’s protocol (Marine Biological Laboratory, Woods Hole, MA, USA). Annexin V-FITC staining in NK-92 cell lines was determined after 48 h in the absence or presence of different amounts of Aloe-emodin (9 mM stock solution in DMSO) ranging from 6.25 to 50 μM. Proliferation was evaluated by measuring Ki-67 nuclear antigen expression using FITC-labeled anti-human Ki-67 mAb according to the manufacturer’s protocol (BD Biosciences, San Jose, CA, USA). Acquisition was performed on a FACSCalibur flow cytometer (BD Biosciences) and at least 10,000 events per sample were run. Data were analyzed using the Cell Quest Pro software (BD Biosciences) and expressed as mean ± standard deviation from 2 independent experiments.

NK-92 cells [2] = experiment: Apoptosis in NK-92 cells, Annexin V-FITC flow cytometry; format: cell-based, Human; conditions: 48 h
Protocol: as §1

[3] = test system: NK92 cells killing K562 target cells; experiment: NK92 cell-mediated cytotoxicity against K562 cells, LDH release; format: cell-based, Human; conditions: NK92 treated 48 h with 5 to 20 μM, E:T ratio 10:1, 4 h with K562, LDH release, 4 independent experiments
Protocol: To determine NK-92’s cell cytotoxicity, CytoTox 96 non-radioactive cytotoxicity assay (Promega, Madison, WI) was used, based on the colorimetric detection of the released enzyme LDH. NK-92 cells were harvested, washed, counted, and diluted at the concentration of 1 × 10^6 cells/mL in BM with 10% FCS and 100 μ/mL of IL-2. […] Target cells were harvested, washed, resuspended to 1 × 10^5 cells/mL in BM, added, and incubated with effector cells for 4 h at 37 °C employing incresingincreasing effector/target cell ratio ranging from 0.625:1 to 10:1 in triplicate. A total of 50 μL of supernatants were assayed for LDH activity according to the manufacturer’s instruction. Controls for spontaneous and maximum LDH release in effector and target cells were also assayed. The calculation of cytotoxicity percentage was as follows: (Experimental—Effector Spontaneous—Target spontaneous)/(Target Maximum—Target Spontaneous) × 100. Data are expressed as mean ± standard deviation from 4 independent experiments. […] The statistical analysis was performed with GraphPad Prism 8.

A549 cells = experiment: MTT cell viability assay in A549 cells; format: cell-based, Human
Protocol: (§2) The compounds (2), (3), and (6), were evaluated for cell viability effects using the MTT assay on SKBR3 and A549 cells at 24, 48, and 72 h at different concentrations. Cell lines were seeded into 96-well microtiter plates (Corning, Inc., Corning, NY, USA) at a density of 1 × 10^4 cells/well. After 24 h, cells were exposed to increased concentrations of compounds (previously prepared in PBS to obtain a stock solution of 1 mM) in cell culture medium. After an incubation time of 24, 48, and 72 h, media were removed and MTT (Sigma, Deisenhofen, Germany) diluted in culture media was added to each well at 0.5 mg/mL. Plates were incubated for 2 h at 37 °C in 5% CO2 incubator; unreacted dye was removed, and cells were solubilized in DMSO (Merck, Darmstadt, Germany). Absorbance was read at 570 nm by an ELISA plate reader (Biorad). Data were expressed as cell metabolic activity, which was calculated as the absorbance value of cells treated with different compounds/absorbance value of control (cells incubated with vehicle alone) cells * 100%. All experiments were performed in triplicate, and all data were expressed as the mean ± standard deviation. One-way ANOVA with Dunnett’s multiple comparisons test was performed with respect to the controls (**** p < 0.0001).

NK-92 cells [4] = experiment: Growth inhibition of NK92 cells, WST-8 assay; conditions: 20, 10, 5 and 1 µM, 24, 48 and 72 h, WST-8, two independent experiments
Protocol: NK-92 cell lines in exponential phase of growth were collected, extensively washed with warm RPMI-1640, and seeded (in triplicate) in 96-well microtiter Costar plates (Costar, Rochester, NY, USA) at a density of 5 × 10^3 cells/mL. The cells were cultured in BM containing recombinant IL-2(100 IU/mL). In the growth inhibition assays, NK92 cells were maintained for 24, 48, and 72 h at 37 °C alone or in the presence of 20, 10, 5, and 1 µM of Aloe-emodin, glutaryl derivatives of AE and AE-CPP-LTV (6). For all above-described experiments, cell survival was determined by WST-8 assay (Orangu™ Cell Counting SolutionWST-8 cell proliferation kit (Aurogene, Rome, Italy), after 24, 48, and 72 h treatment at 37 °C in 5% CO2. Cells were treated with different compounds/absorbance values of control (cells incubated with vehicle alone) cells * 100%. Statistical analysis was performed by the Student’s t-test (2-tailed) to assess differences between means of data analyzed. The p-values are indicated in the figure legends. The statistical analysis of differences was performed with GraphPad Prism 8.

SKBR3 cells = experiment: MTT cell viability assay in SKBR3 cells; format: cell-based, Human
Protocol: as §2

| Structure (SMILES) | proliferation of NK-92 cells (NK-92 cells [1]) | effect on NK-92 cells at the higher dose (NK-92 cells [2]; 50 μM) | apoptosis of NK-92 cells (NK-92 cells [2]; 6.25 to 50 μM, all concentrations except 50 μM, Annexin V-FITC) | NK92-mediated cytotoxicity against K562 compared with untreated NK92 cells [3] | comparative cell viability reduction (3 versus AE (2); 6 versus 3 at 20 μM) (A549 cells) | concentration at which effect on cell viability is already seen (A549 cells) | growth inhibition of NK-92 cells (NK-92 cells [4]) | comparative cell viability reduction (3 versus AE (2); 6 versus 3 at 20 μM) (SKBR3 cells) | concentration at which effect on cell viability is already seen (SKBR3 cells) |
| --- | --- | --- | --- | --- | --- | --- | --- | --- | --- |
| O=C1c2cccc(O)c2C(=O)c2c(O)cc(CO)cc21 [compound 2, 8-dihydroxy-3-hydroxymethyl-anthraquinone] | neither AE (2) induced apoptosis or affected proliferation | cytotoxic effect | neither AE (2) induced apoptosis or affected proliferation | – | – | – | – | – | – |
| O=C(O)CCCC(=O)OCc1cc(O)c2c(c1)C(=O)c1cccc(O)c1C2=O [compound 3, 5-((4,5-dihydroxy-9,10-dioxo-9,10-dihydroanthracen-2-yl)methoxy)-5-oxopentanoic acid] | – | – | – | less NK92-mediated cytotoxicity than the control sample | more effective | effective already at 5 µM | did not induce growth inhibition | more effective | effective already at 5 µM |
| CC(C)C[C@H](NC(=O)CNC(=O)[C@@H]1CCCN1C(=O)CNC(=O)[C@@H](NC(=O)[C@H](CCCCN)NC(=O)[C@H](CCCNC(=N)N)NC(=O)[C@H](CCCCN)NC(=O)[C@H](CCCCN)NC(=O)[C@H](CCCCN)NC(=O)[C@@H]1CCCN1C(=O)CCCC(=O)OCc1cc(O)c2c(c1)C(=O)c1cccc(O)c1C2=O)C(C)C)C(=O)N[C@H](C(=O)N[C@H](C(=O)N[C@@H](CO)C(=O)N1CCC[C@H]1C(=O)N[C@@H](Cc1c[nH]c2ccccc12)C(=O)N[C@@H](Cc1ccc(O)cc1)C(=O)O)C(C)C)[C@@H](C)O [compound 6] (X1-PKKKRKVGPGLTVSPWY-OH) | – | – | – | – | – | – | did not induce growth inhibition | – | – |
